Measured values reported in US11072632B2, “Inhibitors of 17β-HSD1, 17β-HSD3 and 17β-HSD10” (UNIVERSITÉ LAVAL, priority 2011, dated 2021).
Entries after “also recorded” stand apart in the source; their conditions may differ.

How the values were obtained:
human ERα = target: T1, human ERα (Homo sapiens, UniProt P03372); experiment: ERα competitive binding assay (recombinant human ERα); details: FIG. 5B
T1 construct: purified full-length recombinant human ERα (Life Technologies, Grand Island, N.Y.); purchased Life Technologies
T1 sequence (P03372 1-595): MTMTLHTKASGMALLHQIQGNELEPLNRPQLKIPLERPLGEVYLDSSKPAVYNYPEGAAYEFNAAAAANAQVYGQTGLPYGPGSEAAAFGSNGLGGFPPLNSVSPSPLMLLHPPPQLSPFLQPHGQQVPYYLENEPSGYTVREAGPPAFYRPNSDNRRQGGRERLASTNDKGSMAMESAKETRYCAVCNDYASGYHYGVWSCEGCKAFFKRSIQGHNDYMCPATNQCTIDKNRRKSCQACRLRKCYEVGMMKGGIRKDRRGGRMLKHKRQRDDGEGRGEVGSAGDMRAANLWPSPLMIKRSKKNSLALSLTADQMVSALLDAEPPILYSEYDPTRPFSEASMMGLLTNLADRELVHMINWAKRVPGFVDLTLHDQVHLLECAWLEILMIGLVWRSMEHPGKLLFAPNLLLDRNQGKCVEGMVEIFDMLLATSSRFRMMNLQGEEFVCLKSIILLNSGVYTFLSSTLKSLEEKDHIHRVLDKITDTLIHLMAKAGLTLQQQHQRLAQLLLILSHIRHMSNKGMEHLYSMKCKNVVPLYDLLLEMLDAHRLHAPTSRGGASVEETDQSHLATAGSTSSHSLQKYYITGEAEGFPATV
Procedure: (§1) Non-specific binding was determined by incubation with an excess of cold estradiol (1 μM). After an overnight incubation at 4° C., 100 μl of cold 50% hydroxyapatite slurry was added to bind the receptor/ligand complex. After 15 minutes, 1 mL of wash buffer (40 mM Tris, 1 mM EDTA, 1 mM EGTA, 100 mM KCl, pH 7.4) was added and the tubes were centrifuged at 4500 rpm for 5 minutes at 4° C. The washing step was repeated twice. The radioactivity of the pellet was extracted by incubation with 1 mL of ethanol for 1 h at room temperature.
as §1, with “A competitive binding assay using a purified full-length recombinant human ERα (Life Technologies, Grand Island, N.Y.). […] Non-specific” for “Non-specific”, “E2” for “cold estradiol”, “μL” for “μl”

17β-HSD2 = target: T2, 17β-HSD2 (Homo sapiens, UniProt P37059); assay type: cell-based; details: 5 nM to 20 μM
T2 construct: expressed in transfected cells
T2 sequence (P37059 1-387): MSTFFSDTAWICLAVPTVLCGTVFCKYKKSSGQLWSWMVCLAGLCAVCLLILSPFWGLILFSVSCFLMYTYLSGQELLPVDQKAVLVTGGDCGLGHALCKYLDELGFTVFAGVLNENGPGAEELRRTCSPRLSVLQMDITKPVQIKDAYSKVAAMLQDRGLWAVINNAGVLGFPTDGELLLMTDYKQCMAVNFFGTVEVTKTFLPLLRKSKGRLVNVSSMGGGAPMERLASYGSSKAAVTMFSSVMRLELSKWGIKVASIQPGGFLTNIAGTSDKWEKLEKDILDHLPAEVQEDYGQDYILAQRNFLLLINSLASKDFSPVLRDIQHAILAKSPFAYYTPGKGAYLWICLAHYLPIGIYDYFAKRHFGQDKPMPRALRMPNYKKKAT
Procedure: Inhibition assays were performed using stable 17β-HSD2 HEK-293 transfected intact cells with 5000 cells per well using 24 well plates (Poirier et al. Mol. Cell. Endocrinol., 2001, 171, 119-128). The cells were incubated for 1 h at 37° C. in 1 mL of MEM medium steroid free with 60 nM C^14 estradiol.

T-47D tumors = experiment: Inhibition of E1-stimulated T-47D tumor growth in nude OVX mice (xenograft); assay type: in vivo, mouse
Procedure: Female OVX BALB/c athymic nude mice weighing approximately 20 g were obtained from Charles-River, Inc. (St-Constant, Qc., Canada). The animals were housed 5 per cage. […] T-47D tumor growth was stimulated using 0.1 μg of E1 s.c. per mouse per day for 15 days. From day 16, animals with tumors were randomized in function of tumor volume and separated into three groups. Group 1 (control mice) was treated s.c. with 100 μL of vehicle alone (8% EtOH/92% PG) per mouse per day. Group 2 (E1 0.1 μg) was treated with E1 (0.1 μg/day, s.c. per mouse) during 32 days. Group 3 (E1 0.1 μg+Compound V 250 μg) was treated with E1 (0.1 μg/day) and Compound V (250 μg/day) per mouse in a combined s.c. injection for 32 days. The mice were weighed at start and volumes of tumors were determined by external caliper twice a week and the greatest longitudinal diameter (length) and the greatest transverse diameter (width) were determined. Tumor volume based on caliper measurements was calculated by the modified ellipsoidal formula: Tumor volume=½(length×width^2) (Jensen M M, Jorgensen J T, Binderup T, Kjaer A. Tumor volume in subcutaneous mouse xenografts measured by microCT is more accurate and reproducible than determined by 18F-FDG-microPET or external caliper. BMC Med Imaging 2008; 8:16). At the end of the studies the mice were terminally anaesthetized, final body weights and tumor sizes were determined. Uteri and vagina were removed, excised of fat and weighed (Day J M, Foster P A, Tutill H J, Parsons M F, Newman S P, Chander S K, et al. 17beta-hydroxysteroid dehydrogenase type 1, and not type 12, is a target for endocrine therapy of hormone-dependent breast cancer. Int J Cancer 2008; 122:1931-40; Husen B, Huhtinen K, Poutanen M, Kangas L, Messinger J, Thole H. Evaluation of inhibitors for 17beta-hydroxysteroid dehydrogenase type 1 in vivo in immunodeficient mice inoculated with MCF-7 cells stably expressing the recombinant human enzyme. Mol Cell Endocrinol 2006; 248:109-13; Husen B, Huhtinen K, Saloniemi T, Messinger J, Thole H H, Poutanen M: Human hydroxysteroid (17-beta) dehydrogenase 1 expression enhances estrogen sensitivity of MCF-7 breast cancer cell xenografts. Endocrinology 2006; 147:5333-9; Messinger J, Hirvela L, Husen B, Kangas L, Koskimies P, Pentikainen O, et al. New inhibitors of 17beta-hydroxysteroid dehydrogenase type 1. Mol Cell Endocrinol 2006; 248:192-8).

Row | SMILES | relative binding affinity (RBA) (human ERα) | inhibition of 17β-HSD2 (conversion of E2 to E1) (17β-HSD2) | toxicity (T-47D tumors; 250 μg/day/mouse (s.c.), 32 days) | effect on mouse weight (T-47D tumors; 32-day treatment period) | growth of E1-stimulated tumors inhibited (%) (T-47D tumors; E1 0.1 μg/day + Compound V 250 μg/day s.c., 32 days) | effect on E1-stimulated uterine and vaginal weight (T-47D tumors; E1 0.1 μg/day + Compound V 250 μg/day, 32 days)
1 | C[C@]12CC[C@@H]3c4ccc(O)cc4CC[C@H]3[C@@H]1C[C@H](Cc1cccc(C(N)=O)c1)[C@@H]2O [Compound I, 16β-(m-carbamoylbenzyl)estradiol, reference compound] | 1.5% |  |  |  |  | 
2 | C[C@]12CC[C@@H]3c4ccc(CCBr)cc4CC[C@H]3[C@@H]1C[C@H](Cc1cccc(C(N)=O)c1)[C@@H]2O [Compound V, 3-{[(16β,17β)-3-(2-bromoethyl)-17-hydroxyestra-1(10),2,4-trien-16-yl]methyl}benzamide] |  | no inhibition; also recorded: did not show any inhibition | no apparent toxicity | no effect | 74% | had no effect on the E1-stimulated uterine and vaginal weight increase
